One series concerns human liver microsomes. As to the kind of experiment: Intrinsic clearance in human liver microsomes. As to conditions: human liver microsome assay, 1 μM.
The target in another series is human DGAT2 (hDGAT2) (Homo sapiens (Human), UniProt Q96PD7). Put plainly: In vitro DGAT2 assay, determination of IC50 values. In kind it is biochemical. As to conditions: geometric mean; hDGAT2 membrane fraction.
Series [1] in a line: Determination of pKa (capillary electrophoresis). As to conditions: most basic pKa, mean.
The next series deals with human hepatocytes. Put plainly: High throughput intrinsic clearance in human hepatocytes. As to conditions: high throughput human hepatocyte assay, 1 μM.
The target of series [2] is DGAT2 in human hepatocytes (Homo sapiens (Human), UniProt Q96PD7). As to the kind of experiment: Determination of IC50 values for DGAT2 inhibitors in human hepatocytes. In kind it is cell-based. As to conditions: geometric mean; cryopreserved human hepatocytes, DGAT1 inhibitor 3 μM present. The protocol:
For evaluation of the effects of DGAT2 inhibitors in a cell-based setting, cryopreserved human hepatocytes (Lot DOO, Celsis, Baltimore, MD) were thawed and plated onto type I collagen-coated plates according to the manufacturer's instructions. After 18 hours overnight recovery period, the cells were overlayed with media containing 250 μg/mL Geltrex Basement Membrane Matrix (Thermo Fisher). The following day, media was aspirated and replaced with serum-free Williams Media E (Thermo Fisher) containing 400 μM sodium dodecanoate (Sigma-Aldrich, St. Louis, MO) and 2 mM GlutaMAX (Thermo Fisher). […] DGAT2 inhibitors were then added to the desired final concentration. After a 15 minute preincubation, 0.2 μCi [^14C(U)]-glycerol (Perkin Elmer) was added to each well followed by a 3 hour incubation. At this point the media was removed, and the cells lysed via orbital shaking in isopropyl alcohol: tetrahydrofuran (9:1) for 15 minutes prior to centrifugation at 3000 rpm for 10 minutes. Radiolabeled lipids were resolved using a solvent system by thin layer chromatography with the solvent consisting of hexanes: diethyl ether: glacial acetic acid (75:23:2, v/v/v). After separation, radiolabeled lipids were visualized using the Typhoon 9500 phosphorimaging system (GE). The half maximal inhibitory concentrations (IC50 values) were determined by nonlinear regression analysis of the % inhibition dose response curve using GraphPad Prism (GraphPad Software, Inc., La Jolla, CA).
Table 12 below provides the IC50 values of selected Examples for inhibition of DGAT2 in human hepatocytes in accordance with the above-described assay. Results are reported as geometric mean IC50 values, with the number of replicates (n) shown.

Series [3] has as its system Western diet fed Sprague-Dawley rats. As to the kind of experiment: In vivo effects of DGAT2 inhibitors on plasma and hepatic triglyceride levels (rat western diet model). As to conditions: oral 3, 10, 30, 100 mg/kg BID 7 days; dose dependent; vs western diet vehicle. An excerpt: The rat western diet model was utilized to assess the effects of DGAT2 inhibitor treatment on plasma triglyceride production and hepatic triglyceride content in vivo. Male Sprague-Dawley rats were housed under standard laboratory conditions on a 12-hour light, 12-hour dark cycle (lights on at 06:00). Two weeks prior to study start animals were placed on a high-fat, high sucrose, high-cholesterol diet (D12079b, provided by Research Diets, New Brunswick, NJ). This diet provides ˜43% of kilocalories from carbohydrate and ˜41% of kilocalories from fat. Example 4 was administered orally as a solution (10 mL/kg dosing volume) in 0.5% methylcellulose in deionized water, pH 7.0-7.5 (methylcellulose was obtained from Sigma-Aldrich, St. Louis, MO). […] Plasma TG levels were determined using a Roche Hitachi Chemistry analyzer according to the manufacturer's instructions (Roche Diagnostics Corporation, Indianapolis, IN) and data was analyzed using GraphPad Prism (GraphPad Software, Inc., La Jolla, CA). […] The triglyceride assay was performed through absorbance and reported as milligrams per deciliter. […]
FIG. 29 plots the multiple dose effects of Example 4 on Plasma Triglyceride in Western Diet Fed Sprague-Dawley Rats where plasma triglyceride levels were determined from blood drawn from the lateral tail vein 2-hours following the final dose of Example 4. […]

The nature of series [4]: Thermodynamic solubility in various media. In kind it is physicochemical. The protocol:
The solubility of active pharmaceutical ingredients is an important characteristic in determining biological performance and ease of formulation during drug development, with high solubility being preferred (Klein, S. 2010, The AAPS Journal, 12, 397-406; Di, L., et al 2012, Drug Disc. Today, 17. 486-495). A test sample of crystalline solid (˜7 mg) was combined in a vial with 1 mL of the relevant buffer solution and the mixture vortexed to combine. If the solid dissolved completely, additional solid was added with vortexing until a saturated solution was obtained. The saturated solution/solid mixture was capped and subjected to temperature cycling as follows: 1 min at 25° C.; 8 h at 40° C.; 5 h at 15° C. and 12 h at 25° C. The mixture was filtered in a centrifugal filtration device (0.22 μm PVDF filter, MilliporeSigma, Milwaukee, WI) at 13,000 rpm and the concentration of the test compound in the filtrate was determined by HPLC/UPLC with reference to a three point standard curve. Phosphate buffered saline (PBS, pH 6.8, 50 mM phosphate buffer, 250 mM NaCl). Simulated gastric fluid (SGN pH 1.2, USP recipe). […]

What is called IC50 is the concentration needed to halve the response being measured. A low value points to higher potency. One may read the solubility as the dissolved amount per volume that the medium holds. Read a low solubility as a poorly soluble substance.

Values after ≈ are worked out from the molar mass of the structure shown. A value given as a limit tells only on which side of the number the result lay.

Chain of DGAT2 in human hepatocytes (Q96PD7 whole entry): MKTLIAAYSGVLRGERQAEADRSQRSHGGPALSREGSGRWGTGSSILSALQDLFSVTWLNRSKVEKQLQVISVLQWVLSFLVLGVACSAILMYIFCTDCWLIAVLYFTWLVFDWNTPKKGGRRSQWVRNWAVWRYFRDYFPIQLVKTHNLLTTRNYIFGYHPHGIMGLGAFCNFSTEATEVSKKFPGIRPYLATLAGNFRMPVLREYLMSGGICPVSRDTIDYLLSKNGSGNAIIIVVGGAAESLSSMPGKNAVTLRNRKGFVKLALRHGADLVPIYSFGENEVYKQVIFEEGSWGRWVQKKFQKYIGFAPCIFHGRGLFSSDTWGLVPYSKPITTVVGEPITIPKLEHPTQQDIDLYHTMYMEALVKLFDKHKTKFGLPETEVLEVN
Chain of human DGAT2 (hDGAT2) (Q96PD7 whole entry): as above
Method for human liver microsomes: The high throughput human microsomal stability assay was performed in a 384-well format (Di, L., et al. 2012, Eur. J. Med. Chem., 57, 441-448). All liquid handling and incubation were conducted with a Biomek FX (Beckman Coulter, Inc., Indianapolis, IN), equipped with one 3-position Mecour heated deck positions. Pooled human liver microsomes of 50 donors (Lot: HLM-103) were purchased from BD Biosciences (Bedford, MA). Each incubation contained test compound (1 μM), human liver microsomes (0.25 μM CYP protein equivalent to 0.806 mg/mL protein concentration), NADPH 20.9 mM, MgCl2 (3.3 mM) and potassium phosphate buffer (100 mM at pH 7.4). The final reaction volume was 45 μL containing 0.1% DMSO. The incubations were conducted at 37° C. At various time points (e.g. 1, 4, 7, 12, 20, 25, 45 and 60 min), cold acetonitrile with mass spectrometry (MS) internal standard (Example 39A, WO1999/57125) was added to quench the reaction. The plates were centrifuged at 3000 rpm for 1 min at 4° C. […] The plates were sealed and subsequently analyzed using LC-MS/MS. Control plates were prepared in the same manner without adding the NADPH cofactor to monitor any non-CYP/FMO catalyzed decline. […] The data are presented as the mean+/− standard deviation, with the number of replicates (n) shown.

Regarding `CCOc1cccnc1Oc1cncc(-c2ncc(C(=O)N[C@@H]3CNCC[C@@H]3F)cn2)c1.O=C(O)C(F)(F)F.O=C(O)C(F)(F)F` [Example 3, 2-{5-[(3-Ethoxypyridin-2-yl)oxy]pyridin-3-yl}-N-[(3R,4S)-4-fluoropiperidin-3-yl]pyrimidine-5-carboxamide, bis(trifluoroacetate) salt], the “CLint (+/− STD Dev)” value with human liver microsomes is less than 7 µL/min/mg. In addition, the IC50 stood at 0.04 µM against human DGAT2 (hDGAT2) and 0.023 µM in series [2]. In series [1], the “Basic pKa” value worked out at 8.1. Also, the “CLint (+/− Std Dev)” value in the series with human hepatocytes is listed as <1.9 +/− 0.35 μL/min/10^6 cells.
For `CCOc1cccnc1Oc1cncc(-c2ncc(C(=O)N[C@@H]3CNC[C@@H](F)C3)cn2)c1` [Example 4, 2-{5-[(3-Ethoxypyridin-2-yl)oxy]pyridin-3-yl}-N-[(3S,5S)-5-fluoropiperidin-3-yl]pyrimidine-5-carboxamide], the “reduction in liver triglycerides” value in series [3] is reported as “up to 48%”. For the same molecule, the “reduction in plasma triglycerides” value in series [3] is given as not above 70%. Moreover, the figures for the IC50 (against human DGAT2 (hDGAT2); in series [2]) were 0.01 µM and 0.011 µM, respectively. In addition, the solubility at 25 h in series [4] (FaSSIF (as printed, 25 °C, thermodynamic from solid), FaSSIF pH 6.8 (second line so printed; method also names FeSSIF)) was 1210 µg/mL (≈ 2760 µM); in series [4] (fasted state simulated intestinal fluid (FaSSIF), 25 °C, thermodynamic from solid, FaSSIF pH 6.8 (first line)), 700 µg/mL (≈ 1600 µM).

These data come from patent US20230405002A1, “COMBINATIONS OF DIACYLGLYCEROL ACYLTRANSFERASE 2 INHIBITORS AND ACETYL-COA CARBOXYLASE INHIBITOR” (Pfizer Inc., priority 2020, published 2023).
